Assay results as given in patent US20260226086A1, “COMPOUNDS AND COMPOSITIONS AS STAT3 DEGRADERS AND USES THEREOF” (REGENTS OF THE UNIVERSITY OF MICHIGAN, priority 2023, published 2026).

Columns and labels:
Type in all cases: cell-based
[1] = system: SUP-M2 cells; experiment: CellTiter-Glo 2.0 cell viability assay, SUP-M2; settings: SUP-M2, 96 h, 4 days
Procedure: (§1) For example, cell viability may be determined by CellTiter-Glo 2.0 Cell Viability Assay. In a typical procedure, cells seeded at certain amounts of cells (e.g., 1000 cells) per well are incubated with serially diluted compounds for certain period (e.g., 4 days) under certain conditions (e.g., at 37° C. with 5% CO2). At the end of treatment, CellTiter-Glo 2.0 is added to the wells and luminescence is acquired on TECAN SPARK plate reader. Untreated cells are used as control, Data points are fit with an equation (e.g., a four-parameter equation) to generate a concentration-response curve. IC50 values are calculated using a nonlinear regression analysis of the mean±SD from triplicate.
(§2) SU-DHL-1 and SUP-M2 cell viability was determined by CellTiter-Glo 2.0 Cell Viability Assay (Promega). SU-DHL-1 cell line was purchased from ATCC (Manassas, VA) and SUP-M2 (ACC-509) was purchased from DSMZ (Germany). RPMI 1640 medium and fetal bovine serum (FBS) were purchased from Gibco/Thermo Fisher Scientific. In a typical procedure, cells seeded at 1000 cells per well in 384-well white plates (Corning) were incubated with serially diluted compounds for 4 days at 37° C. with 5% C02. At the end of treatment, CellTiter-Glo 2.0 was added to the wells and luminescence was acquired on TECAN SPARK plate reader. Untreated cells were used as control. Data points were fit with a four-parameter equation to generate a concentration-response curve. IC50 values were calculated using a nonlinear regression analysis of the mean±SD from triplicate.

[2] = molecular target: T1, STAT3 (Homo sapiens, UniProt P40763); experiment: HiBiT assay, STAT3 degradation in STAT3-HiBiT KI HeLa cells; settings: for DC50 / Dmax at 1 µM: 24 h; for DC50: read-out: STAT3 Degradation (HeLa 24 h HiBit) DC50
T1 construct: This cell line is a clone created by using CRISPR-Cas9 to fuse HiBiT to the 3′ end of STAT3 in HeLa cells; host or cells: STAT3-HiBiT KI HeLa cell line (CRISPR-Cas9 knock-in clone)
T1 sequence (P40763 whole entry): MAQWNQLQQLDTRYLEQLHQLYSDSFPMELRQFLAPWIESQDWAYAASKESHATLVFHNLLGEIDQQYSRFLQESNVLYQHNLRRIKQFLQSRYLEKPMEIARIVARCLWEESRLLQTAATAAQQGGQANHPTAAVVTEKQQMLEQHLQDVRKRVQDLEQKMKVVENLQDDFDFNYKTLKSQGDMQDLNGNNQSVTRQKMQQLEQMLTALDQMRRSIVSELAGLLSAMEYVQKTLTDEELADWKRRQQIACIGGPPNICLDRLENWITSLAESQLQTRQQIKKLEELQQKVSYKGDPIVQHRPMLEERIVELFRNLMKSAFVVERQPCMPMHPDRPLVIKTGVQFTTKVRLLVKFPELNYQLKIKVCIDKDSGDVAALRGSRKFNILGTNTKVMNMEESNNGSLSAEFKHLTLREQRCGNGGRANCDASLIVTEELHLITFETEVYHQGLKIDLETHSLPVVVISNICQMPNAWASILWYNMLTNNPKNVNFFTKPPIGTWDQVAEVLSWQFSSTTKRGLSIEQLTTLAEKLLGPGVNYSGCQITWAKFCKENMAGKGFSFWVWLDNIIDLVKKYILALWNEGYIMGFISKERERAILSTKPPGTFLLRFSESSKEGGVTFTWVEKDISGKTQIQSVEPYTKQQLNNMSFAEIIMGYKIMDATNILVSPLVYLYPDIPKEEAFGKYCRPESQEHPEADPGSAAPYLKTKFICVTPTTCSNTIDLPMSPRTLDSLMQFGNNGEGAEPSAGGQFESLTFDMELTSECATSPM
Procedure: STAT3 degradation may be determined by HiBiT assay. STAT3-HiBiT KI HeLa cell line, which is a clone created by using CRTISPR-Cas9 to fuse HiBiT to the 3′ end of STAT3 in HeLa cells, may be used for this assay. In a typical procedure, cells seeded at certain amounts of cells (e.g., 20000 cells) per well are incubated with serially diluted compounds for certain period of time (e.g., 24 hours) under certain conditions (e.g., at 37° C. with 5% CO2). At the end of treatment, Nano-Glo HiBiT Lytic Detection reagents is added to the wells and luminescence is acquired on TECAN SPARK plate reader. Untreated cells are used as control. Data points are fit with a four-parameter equation to generate a concentration-response curve. IC50 values are calculated using a nonlinear regression analysis of the mean±SD from triplicate.
STAT3-HiBiT KI HeLa cell line was purchased from Promega. This cell line is a clone created by using CRISPR-Cas9 to fuse HiBiT to the 3′ end of STAT3 in HeLa cells. DMEM medium and FBS were purchased from Gibco/Thermo Fisher Scientific. STAT3 degradation was determined based on quantification of luminescent signal using Nano-Glo HiBiT Lytic Detection System. In a typical procedure, cells seeded at 20000 cells per well in 96-well white plates (Corning) were incubated with serially diluted compounds for 24 hours at 37° C. with 5% CO2. At the end of treatment, Nano-Glo HiBiT Lytic Detection reagents was added to the wells and luminescence was acquired on TECAN SPARK plate reader. Untreated cells were used as control. Data points were fit with a four-parameter equation to generate a concentration-response curve. IC50 values were calculated using a nonlinear regression analysis of the mean±SD from triplicate.

[3] = system: SU-DHL-1 cells; experiment: CellTiter-Glo 2.0 cell viability assay, SU-DHL-1; settings: Homo sapiens, 96 h, 4 days
Procedure: as §1, §2

For `Cc1ncsc1-c1ccc([C@H](C)NC(=O)[C@@H]2C[C@@H](O)CN2C(=O)[C@@H](n2cc(CCCC(=O)N3CC[C@H]4CC[C@@H](C(=O)N[C@@H](CCC(N)=O)C(=O)NC(c5ccccc5)c5ccccc5)N4C(=O)[C@@H](NC(=O)c4cc5cc(C(=O)P(=O)(O)O)ccc5[nH]4)C3)nn2)C(C)(C)C)cc1` [Compound 56, (2-(((5S,8S,10aR)-8-(((S)-5-amino-1-(benzhydrylamino)-1,5-dioxopentan-2-yl)carbamoyl)-3-(4-(1-((S)-1-((2S,4R)-4-hydroxy-2-(((S)-1-(4-(4-methylthiazol-5-yl)phenyl)ethyl)carbamoyl)pyrrolidin-1-yl)-3,3-dimethyl-1-oxobutan-2-yl)-1H-1,2,3-triazol-4-yl)butanoyl)-6-oxodecahydropyrrolo[1,2-a][1,5]diazocin-5-yl)carbamoyl)-1H-indole-5-carbonyl)phosphonic acid], the IC50 [1] was 100 to 1000 nM, the DC50 [2] was > 1000 nM and the IC50 [3] was 100 to 1000 nM.

With `Cc1ncsc1-c1ccc([C@H](C)NC(=O)[C@@H]2C[C@@H](O)CN2C(=O)[C@@H](n2cc(CCCC(=O)N3CC[C@H]4CC[C@@H](C(=O)N[C@@H](CCC(N)=O)C(=O)NCc5cccc(Cl)c5)N4C(=O)[C@@H](NC(=O)c4cc5cc(C(=O)P(=O)(O)O)ccc5[nH]4)C3)nn2)C(C)(C)C)cc1` [Compound 9, (2-(((5S,8S,10aR)-8-(((S)-5-amino-1-((3-chlorobenzyl)amino)-1,5-dioxopentan-2-yl)carbamoyl)-3-(4-(1-((S)-1-((2S,4R)-4-hydroxy-2-(((S)-1-(4-(4-methylthiazol-5-yl)phenyl)ethyl)carbamoyl)pyrrolidin-1-yl)-3,3-dimethyl-1-oxobutan-2-yl)-1H-1,2,3-triazol-4-yl)butanoyl)-6-oxodecahydropyrrolo[1,2-a][1,5]diazocin-5-yl)carbamoyl)-1H-indole-5-carbonyl)phosphonic acid] the IC50 [1] was 10 to 100 nM, the Dmax at 1 µM ([2]; @1 μM) was > 80% and the DC50 [2] was 10 to 100 nM. For the same compound, the IC50 [3] was 10 to 100 nM.

`Cc1ncsc1-c1ccc([C@H](C)NC(=O)[C@@H]2C[C@@H](O)CN2C(=O)[C@@H](NC(=O)CCCCCC(=O)N2CC[C@H]3CC[C@@H](C(=O)N[C@@H](CCC(N)=O)C(=O)NC(c4ccccc4)c4ccccc4)N3C(=O)[C@@H](NC(=O)c3cc4cc(C(=O)P(=O)(O)O)ccc4[nH]3)C2)C(C)(C)C)cc1` [Compound 50, (2-(((5S,8S,10aR)-8-(((S)-5-amino-1-(benzhydrylamino)-1,5-dioxopentan-2-yl)carbamoyl)-3-(7-(((S)-1-((2S,4R)-4-hydroxy-2-(((S)-1-(4-(4-methylthiazol-5-yl)phenyl)ethyl)carbamoyl)pyrrolidin-1-yl)-3,3-dimethyl-1-oxobutan-2-yl)amino)-7-oxoheptanoyl)-6-oxodecahydropyrrolo[1,2-a][1,5]diazocin-5-yl)carbamoyl)-1H-indole-5-carbonyl)phosphonic acid] was tested, and the IC50 [1] was 10 to 100 nM, the DC50 [2] was 100 to 1000 nM and the IC50 [3] was 10 to 100 nM.

`Cc1ncsc1-c1ccc([C@H](C)NC(=O)[C@@H]2C[C@@H](O)CN2C(=O)[C@@H](n2cc(CCCc3cccc(OC[C@H](CCC(N)=O)NC(=O)[C@@H]4CC[C@@H]5CCN(C(=O)C6CCN(C)CC6)C[C@H](NC(=O)c6cc7cc(C(=O)P(=O)(O)O)ccc7[nH]6)C(=O)N54)c3Cl)nn2)C(C)(C)C)cc1` [Compound 32, (2-(((5S,8S,10aR)-8-(((S)-5-amino-1-(2-chloro-3-(3-(1-((S)-1-((2S,4R)-4-hydroxy-2-(((S)-1-(4-(4-methylthiazol-5-yl)phenyl)ethyl)carbamoyl)pyrrolidin-1-yl)-3,3-dimethyl-1-oxobutan-2-yl)-1H-1,2,3-triazol-4-yl)propyl)phenoxy)-5-oxopentan-2-yl)carbamoyl)-3-(1-methylpiperidine-4-carbonyl)-6-oxodecahydropyrrolo[1,2-a][1,5]diazocin-5-yl)carbamoyl)-1H-indole-5-carbonyl)phosphonic acid] was tested, and the IC50 [1] was 100 to 1000 nM, the Dmax at 1 µM ([2]; @1 μM) was > 80% and the DC50 [2] was 10 to 100 nM. The IC50 [3] was 10 to 100 nM.

With `CCS(=O)(=O)c1ccc(CNC(=O)[C@H](CCC(N)=O)NC(=O)[C@@H]2CC[C@@H]3CCN(C(=O)CCCCc4cn([C@H](C(=O)N5C[C@H](O)C[C@H]5C(=O)N[C@@H](C)c5ccc(-c6scnc6C)cc5)C(C)(C)C)nn4)C[C@H](NC(=O)c4cc5cc(C(=O)P(=O)(O)O)ccc5[nH]4)C(=O)N32)cc1` [Compound 11, (2-(((5S,8S,10aR)-8-(((S)-5-amino-1-((4-(ethylsulfonyl)benzyl)amino)-1,5-dioxopentan-2-yl)carbamoyl)-3-(5-(1-((S)-1-((2S,4R)-4-hydroxy-2-(((S)-1-(4-(4-methylthiazol-5-yl)phenyl)ethyl)carbamoyl)pyrrolidin-1-yl)-3,3-dimethyl-1-oxobutan-2-yl)-1H-1,2,3-triazol-4-yl)pentanoyl)-6-oxodecahydropyrrolo[1,2-a][1,5]diazocin-5-yl)carbamoyl)-1H-indole-5-carbonyl)phosphonic acid] the IC50 [1] was < 10 nM, the Dmax at 1 µM ([2]; @1 μM) was > 80% and the DC50 [2] was < 10 nM. The IC50 [3] was 10 to 100 nM.

`CCS(=O)(=O)c1ccc(CNC(=O)[C@H](CCC(N)=O)NC(=O)[C@@H]2CC[C@@H]3CCN(C(=O)CCCCc4cn([C@@H](C(=O)N5C[C@H](O)C[C@H]5C(=O)N[C@H](C)c5ccc(-c6scnc6C)cc5)C5CCN(C(C)=O)CC5)nn4)C[C@H](NC(=O)c4cc5cc(C(=O)P(=O)(O)O)ccc5[nH]4)C(=O)N32)cc1` [Compound 22, (2-(((5S,8S,10aR)-3-(5-(1-((R)-1-(1-acetylpiperidin-4-yl)-2-((2S,4R)-4-hydroxy-2-(((R)-1-(4-(4-methylthiazol-5-yl)phenyl)ethyl)carbamoyl)pyrrolidin-1-yl)-2-oxoethyl)-1H-1,2,3-triazol-4-yl)pentanoyl)-8-(((S)-5-amino-1-((4-(ethylsulfonyl)benzyl)amino)-1,5-dioxopentan-2-yl)carbamoyl)-6-oxodecahydropyrrolo[1,2-a][1,5]diazocin-5-yl)carbamoyl)-1H-indole-5-carbonyl)phosphonic acid] was tested, and the IC50 [1] was < 10 nM, the Dmax at 1 µM ([2]; @1 μM) was > 80% and the DC50 [2] was < 10 nM.

`COCCOCCOCCOC[C@H](NC(=O)[C@@H]1C[C@@H](O)CN1C(=O)[C@@H](n1cc(CCCc2cccc(OC[C@H](CCC(N)=O)NC(=O)[C@@H]3CC[C@@H]4CCN(C(C)=O)C[C@H](NC(=O)c5cc6cc(C(=O)P(=O)(O)O)ccc6[nH]5)C(=O)N43)c2Cl)nn1)C(C)(C)C)c1ccc(-c2scnc2C)cc1` [Compound 35, (2-(((5S,8S,10aR)-3-acetyl-8-(((S)-5-amino-1-(2-chloro-3-(3-(1-((S)-1-((2S,4R)-4-hydroxy-2-(((R)-13-(4-(4-methylthiazol-5-yl)phenyl)-2,5,8,11-tetraoxatridecan-13-yl)carbamoyl)pyrrolidin-1-yl)-3,3-dimethyl-1-oxobutan-2-yl)-1H-1,2,3-triazol-4-yl)propyl)phenoxy)-5-oxopentan-2-yl)carbamoyl)-6-oxodecahydropyrrolo[1,2-a][1,5]diazocin-5-yl)carbamoyl)-1H-indole-5-carbonyl)phosphonic acid] was tested, and the IC50 [1] was 10 to 100 nM, the Dmax at 1 µM ([2]; @1 μM) was > 80% and the DC50 [2] was 10 to 100 nM.

With `CCS(=O)(=O)c1ccc(CNC(=O)[C@H](CCC(N)=O)NC(=O)[C@@H]2CC[C@@H]3CCN(C(=O)CCCCCc4cn([C@H](C(=O)N5C[C@H](O)C[C@H]5C(=O)N[C@@H](COCCOCCOC)c5ccc(-c6scnc6C)cc5)C(C)(C)C)nn4)C[C@H](NC(=O)c4cc5cc(C(=O)P(=O)(O)O)ccc5[nH]4)C(=O)N32)cc1` [Compound 40] the IC50 [1] was 10 to 100 nM, the DC50 [2] was 10 to 100 nM and the “STAT3 Degradation (HeLa 24 h HiBit) Dmax (@1 μM)” value ([2]; @1 μM) was “A (A (>=80%))”.
